The text below walks through data of US9156874B2, “Double-liver-targeting phosphoramidate and phosphonoamidate prodrugs” (Nanjing Molecular Research, Inc., priority 2011, dated 2015).

SMILES strings stand for the structures.

Data set [1] is described as follows: Pharmacokinetic (PK) study in rats, plasma and liver levels by LC/MS-MS. In kind it is in vivo, SD rats. As to conditions: for oral bioavailability: rats. The procedure:
Pharmacokinetic (PK) study of ester prodrug (FDURPAE), parent drug (FDUR) and prodrug in sodium salt form (FDURPAN) in rats were completed according to following procedure.
SD rats (250-300 g, male, N=24) were used for FDURPAE, FDUR and FDURPAN, purchased from SLAC Laboratory Animal Co. LTD Qualification No.: SCXK SH 2007-0005, 13264. FDURPAE (0.096 mmol, 52.17 mg/kg) and FDUR (0.096 mmol, 23.7 mg/kg) were dosed orally by gavage with a single dose of each compound to rats in a volume of 5 mL/kg in 0.5% carboxymethylcellulose sodium. FDURPAN (0.096 mmol, 50.24 mg) was dosed both orally or iv by gavage with a single dose to rats in a volume of 5 mL/kg in water. The animal was restrained manually at designated time points. Approximately 500 μL of blood/time point was collected into K2EDTA tube via cardiac puncture for terminal bleeding under anesthesia with Isoflurane. Blood samples were put on ice after collection and then centrifuged to obtain plasma sample (2000 g, 5 min, 4° C.) within 15 minutes of sampling. […] All the plasma samples were immediately quenched for protein precipitation. Liver samples were removed at designated time points by first sacrificing the animal by CO2 inhalation, then perfusing the liver with ice cold saline and removing the left middle liver lobe, which was then snap frozen in dry ice. Liver samples were stored at approximately −80° C. until analysis. The liver homogenate was then processed for further analysis by LC/MS-MS. Plasma and liver samples were stored at approximately −80° C. until analysis.
Concentrations of parent drug and possible metabolites in both plasma and liver including FDURPAN (stable metabolite of FDURPAE), FDUR, 5FU and FDUR-MP were determined by LC/MS-MS, respectively.

For the next data set, the system named is HCV subgenomic replicon. Briefly: HCV replicon assay (Huh-7, luciferase reporter). It is filed as cell-based. On the procedure:
Anti-Hepatitis C Activity. Anti-HCV activity and cytotoxicity of compounds disclosed herein were assayed following the method described in WO 2007/027248.
The anti-HCV activity and toxicity of the exemplary compounds can be tested in two biological assays—a cell-based HCV replicon assay and cytotoxicity assay (WO 2007/027248).
A human hepatoma cell line (Huh-7) containing replicating HCV subgenomic replicon with a luciferase reporter gene (luc-ubi-neo) was used to evaluate anti-HCV activity of the compounds. In this assay, level of luciferase signal correlates with the viral RNA replication directly. The HCV replicon-reporter cell line (NK/luc-ubi-neo) was cultured in DMEM medium supplemented with 10% fetal bovine serum and 0.5 mg/ml Geneticin (G418). Cells were maintained in a subconfluent state to ensure high levels of HCV replicon RNA synthesis.
To evaluate the antiviral activity of compounds, serial dilutions were prepared with concentrations ranging from 0.14 to 300 μM. Diluted compounds were transferred to a 96-well plate followed by the addition of replicon cells (6000 cells per well). Cells were incubated with the compounds for 48 h after which luciferase activity was measured. Reduction of luciferase signal reflected the decrease of HCV replicon RNA in the treated cells and used to determine the EC50 value (concentration which yielded a 50% reduction in luciferase activity).
For orientation: A replicon is a self-replicating genome or part of one, used to study replication in cells.

Turning to `Cc1ccccc1CO[P@](=O)(N[C@H](C)C(=O)OC(C)C)OCC1OC(n2cc(F)c(=O)[nH]c2=O)CC1O` (single isomer, unassigned) [FDURPAE (F5)], in data set [1] (rat, oral administration), the “detection of active drug FDUR-MP in plasma” value is “could not be detected” and the “detection of metabolite 5FU in plasma” value is reported as “could not be detected”. Besides, the oral bioavailability entry in data set [1] is recorded as “significantly improved oral bioavailability”.

Regarding `CC1(F)C(O)C(COP(=O)(NCc2ccccc2)OCc2ccccc2)OC1n1ccc(=O)[nH]c1=O` (stereo not drawn) [F2], in the data set with HCV subgenomic replicon, the anti-HCV activity result is recorded as “did not show any anti-HCV activity”.

In the case of `Cc1ccccc1COP(=O)(NCc1ccccc1)OCC1OC(n2ccc(=O)[nH]c2=O)C(C)(F)C1O` (stereo not drawn) [F3], in the data set on HCV subgenomic replicon, the anti-HCV activity entry is recorded as “potent anti-HCV activity”.

Consider `Cc1ccccc1COP(=O)(NCc1ccccc1)OCC1OC(n2cc(F)c(=O)[nH]c2=O)CC1O` (stereo not drawn) [F4], for which the oral bioavailability result in data set [1] was “very low”.
